In PMC10495297, “Three new amide derivatives from the fungus Alternaria brassicicola” (Natural Products and Bioprospecting, 2023):

Key:
IKKβ = test system: IKKβ; design: method as in PMID 30095270; conditions: cited from earlier work
[1] = MTT cytotoxicity assay, HeLa; assay type: cell-based; conditions: human, HeLa cells, 0.064 to 40 μM
Protocol: (§1) Compounds 1–6 were tested for the cytotoxicity against six cell lines, including five human cancer cell lines (HepG2, Hep3B, HT-29, HeLa, and OCVAR) and the normal liver cell LO2.
(§2) Compounds 1–6 were evaluated for the cytotoxicity against five human cancer cell lines and normal LO2, including OCVaR, HepG2, HeLa, HT-29, and Hep3B, by a previously reported method The tested cells were purchased from the Cell Bank of Chinese Academy of Science, Shanghai, China. For all cell lines, 5000 cells/ well were seeded into 96-well plates (n = 3) and cultured for 18 h, then exposed to the test compounds at concentrations ranging from 0.064 to 40 μM for 48 h, with cis-platin as the positive control. Briefly, 10 μL/well of MTT was added and cultured for another 4 h before removing medium and adding 100 μL of DMSO. The absorbance at 490 nm was detected, and complete medium containing only 0.1% DMSO was defined as 100% and blank well as 0%. The concentration−response relationships were analyzed using Graphpad Prism Software, version 7.0, and IC50 values derived using nonlinear regression analysis fit to a logistic equation.

[2] = MTT cytotoxicity assay, HT-29; assay type: cell-based; conditions: human, HT-29 cells, HT-29, MTT, 0.064 to 40 μM
Protocol: as §1, §2

[3] = MTT cytotoxicity assay, OCVAR; assay type: cell-based; conditions: human, OCVAR cells, 0.064 to 40 μM
Protocol: as §1, §2

[4] = MTT cytotoxicity assay, HepG2; assay type: cell-based; conditions: human, HepG2 cells, 0.064 to 40 μM
Protocol: as §1, §2

[5] = MTT cytotoxicity assay, normal liver cell LO2; assay type: cell-based; conditions: human, LO2 normal liver cells, 0.064 to 40 μM
Protocol: as §1, §2

[6] = MTT cytotoxicity assay, Hep3B; assay type: cell-based; conditions: human, Hep3B cells, 0.064 to 40 μM
Protocol: as §1, §2

PPAR-γ = test system: PPAR-γ; design: method as in PMID 30525677; conditions: cited from earlier work

For alterbrassicene A, which IKKβ inhibitory effect (IKKβ) is on record?
Its IKKβ inhibitory effect is “potent IKKβ inhibitory effect”.

What does the source list for `COCc1ccc(C=O)n1CCCC(=O)O` [Compound 5, 4-[2-formyl-5-(methoxymethyl)-1H-pyrrol-1-yl]butanoic acid]?
IC50 at 48 h [1]: > 40 µM; IC50 at 48 h [2]: > 40 µM; IC50 at 48 h [3]: > 40 µM; IC50 at 48 h [4]: > 40 µM; IC50 at 48 h [5]: > 40 µM; IC50 at 48 h [6]: > 40 µM

With `CCCCOC(=O)CCCCNC(C)=O` [Compound 2, butyl 5-acetamidopentanoate] as the molecule, how does the IC50 at 48 h [1] read?
The IC50 at 48 h was over 40 µM.

And the IC50 at 48 h [2]?
Its IC50 at 48 h is over 40 µM.

What about the IC50 at 48 h [3] of the same molecule?
Its IC50 at 48 h is over 40 µM.

And the IC50 at 48 h [4]?
Its IC50 at 48 h is over 40 µM.

And the IC50 at 48 h [5]?
The IC50 at 48 h was over 40 µM.

What about the IC50 at 48 h [6] of the same molecule?
The IC50 at 48 h was over 40 µM.

With alterbrassicicene A as the molecule, how does the “agonistic action upon PPAR-γ” value (PPAR-γ) read?
The value was “strong agonistic action upon PPAR-γ”.
